One assay deals with E. coli LZ3111. As to the kind of experiment: Antibacterial activity, MIC, quinolone resistant strain (Table 2). It is filed as cell-based. The note with it: Escherichia coli, LZ3111, read-out: MIC LZ3111. The gist of the method:
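Growth inhibition assessed by serial drug dilution in broth; endpoint was absence of macroscopically visible growth, reported as MIC, μg/mL.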

The subject of the next assay is E. coli 25922. The experiment in a line: Antibacterial activity, microbroth dilution MIC (Table 1). Type of assay: cell-based, Escherichia coli. The following applies: Escherichia coli; microbroth dilution; control Gram-negative E. coli 25922 strain; read-out: MIC, 25922. The gist of the method: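 In a microbroth dilution test, the minimum inhibitory concentration was defined as the lowest compound level preventing growth seen by eye, and was given in μg/mL.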

Assay [1] has as its system Escherichia coli (E. coli) BAS849. The assay is described as above. It is filed as cell-based. The note with it: microbroth dilution, super sensitive Gram-negative E. coli BAS849, read-out: MIC, BAS849. The essentials: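 Using broth microdilution, MIC endpoints (μg/mL) mark where visible growth no longer appears; the panel spans sensitive and control Gram-negative strains plus a Gram-positive strain.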
For orientation: In broth dilution the organism is exposed to a series of concentrations in liquid medium.

Assay [2] concerns Staphylococcus aureus (S. aureus) 29213. The assay is described as above. The note with it: microbroth dilution, Gram-positive S. aureus 29213, read-out: MIC, 29213. It is filed as cell-based. The essentials: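 Broth microdilution; endpoint = no macroscopic growth; value = lowest inhibiting concn, μg/mL.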

The term MIC denotes the lowest concentration that inhibits growth of the organism.

In brackets after ≈: the same amount, converted by molar mass.

As to `CCc1cc(C(=O)O)c(=O)[nH]c1-c1ccc2c(c1)cc(CN1C[C@H]3CCC[C@@H](N(C)Cc4ccccc4)[C@H]3C1)n2C` [Cpd 146, 6-(2-(((3aR,4R,7aS)-4-(benzyl(methyl)amino)-1H-isoindol-2(3H,3aH,4H,5H,6H,7H,7aH)-yl)methyl)-1-methyl-1H-indol-5-yl)-5-ethyl-2-oxo-1,2-dihydropyridine-3-carboxylic acid], the MIC in the assay with E. coli LZ3111 was 12.5 to 150 µg/mL (≈ 22.6 to 271 µM); in the assay with E. coli 25922, 1 to 3.5 µg/mL (≈ 1.81 to 6.33 µM); in assay [1] it was less than 1 µg/mL; in assay [2], 12.5 to 150 µg/mL (≈ 22.6 to 271 µM).
Regarding `CCc1cc(C(=O)O)c(=O)[nH]c1-c1ccc2c(c1)cc(CN1C[C@H]3CC[C@@H](N(C)C)[C@H]3C1)n2C` [Cpd 147, 6-(2-(((3aR,4R,6aS)-4-(dimethylamino)hexahydrocyclopenta[c]pyrrol-2(1H)-yl)methyl)-1-methyl-1H-indol-5-yl)-5-ethyl-2-oxo-1,2-dihydropyridine-3-carboxylic acid], the minimum inhibitory concentration (MIC) in the assay with E. coli LZ3111 was 12.5 to 150 µg/mL (≈ 27 to 324 µM); in the assay on E. coli 25922, less than 1 µg/mL; in assay [1], less than 1 µg/mL; in assay [2], 12.5 to 150 µg/mL (≈ 27 to 324 µM).
With `CCc1cc(C(=O)O)c(=O)[nH]c1-c1ccc2c(c1)cc(CN1C[C@H]3CCC[C@@H](NC)[C@H]3C1)n2C` [Cpd 148, 5-ethyl-6-(1-methyl-2-(((3aR,4R,7aS)-4-(methylamino)-1H-isoindol-2(3H,3aH,4H,5H,6H,7H,7aH)-yl)methyl)-1H-indol-5-yl)-2-oxo-1,2-dihydropyridine-3-carboxylic acid], the minimum inhibitory concentration (MIC) lay within 12.5 to 150 µg/mL (≈ 27 to 324 µM) in the assay on E. coli LZ3111, 3.5 to 12.5 µg/mL (≈ 7.57 to 27 µM) with E. coli 25922, 1 to 3.5 µg/mL (≈ 2.16 to 7.57 µM) in assay [1] and 12.5 to 150 µg/mL (≈ 27 to 324 µM) in assay [2].
For `CCc1cc(C(=O)O)c(=O)[nH]c1-c1ccc2c(c1)cc(CN1C[C@H]3CCC[C@@H](N(C)C)[C@H]3C1)n2C` [Cpd 149, 6-(2-(((3aR,4R,7aS)-4-(dimethylamino)-1H-isoindol-2(3H,3aH,4H,5H,6H,7H,7aH)-yl)methyl)-1-methyl-1H-indol-5-yl)-5-ethyl-2-oxo-1,2-dihydropyridine-3-carboxylic acid], the minimal inhibitory concentration (MIC) was 12.5 to 150 µg/mL (≈ 26.2 to 315 µM) in the assay on E. coli LZ3111, 1 to 3.5 µg/mL (≈ 2.1 to 7.34 µM) in the assay on E. coli 25922, less than 1 µg/mL in assay [1] and 12.5 to 150 µg/mL (≈ 26.2 to 315 µM) in assay [2].
Regarding `CCc1cc(C(=O)O)c(=O)[nH]c1-c1ccc2c(c1)cc(CN)n2C` [Cpd 150, 6-(2-(aminomethyl)-1-methyl-1H-indol-5-yl)-5-ethyl-2-oxo-1,2-dihydropyridine-3-carboxylic acid], the MIC with E. coli LZ3111 was 12.5 to 150 µg/mL (≈ 38.4 to 461 µM); with E. coli 25922, 1 to 3.5 µg/mL (≈ 3.07 to 10.8 µM); in assay [1], less than 1 µg/mL; in assay [2], 12.5 to 150 µg/mL (≈ 38.4 to 461 µM).
With `CCc1cc(C(=O)O)c(=O)[nH]c1-c1ccc2c(c1)cc1n2CCC1N1CCCC1` (centres unmarked) [Cpd 151, 5-ethyl-2-oxo-6-(1-(pyrrolidin-1-yl)-2,3-dihydro-1H-pyrrolo[1,2-a]indol-7-yl)-1,2-dihydropyridine-3-carboxylic acid], the MIC in the assay on E. coli LZ3111 is 12.5 to 150 µg/mL (≈ 31.9 to 383 µM); with E. coli 25922, 1 to 3.5 µg/mL (≈ 2.55 to 8.94 µM); in assay [1], less than 1 µg/mL; in assay [2], 12.5 to 150 µg/mL (≈ 31.9 to 383 µM).
For `CCc1cc(C(=O)O)c(=O)[nH]c1-c1ccc2c(c1)cc1n2CCC1N1CCC(N(C)C)C1` (centres unmarked) [Cpd 153, 6-(1-(3-(dimethylamino)pyrrolidin-1-yl)-2,3-dihydro-1H-pyrrolo[1,2-a]indol-7-yl)-5-ethyl-2-oxo-1,2-dihydropyridine-3-carboxylic acid], the minimum inhibitory concentration (MIC) with E. coli LZ3111 is 12.5 to 150 µg/mL (≈ 28.8 to 345 µM); in the assay with E. coli 25922 it was 3.5 to 12.5 µg/mL (≈ 8.05 to 28.8 µM); in assay [1] it was less than 1 µg/mL; in assay [2], 12.5 to 150 µg/mL (≈ 28.8 to 345 µM).
Turning to `CCc1cc(C(=O)O)c(=O)[nH]c1-c1ccc2c(c1)cc(C1CCNC1)n2C.Cl` (centres unmarked) [Cpd 156, 5-ethyl-6-(1-methyl-2-(pyrrolidin-3-yl)-1H-indol-5-yl)-2-oxo-1,2-dihydropyridine-3-carboxylic acid hydrochloride], the MIC lay in the range of 12.5 to 150 µg/mL with E. coli LZ3111, 12.5 to 150 µg/mL in the assay on E. coli 25922, 3.5 to 12.5 µg/mL in assay [1] and 12.5 to 150 µg/mL in assay [2].
With `CCc1cc(C(=O)O)c(=O)[nH]c1-c1ccc2c(c1)cc(C(C)N1CCCC1)n2C` (centres unmarked) [Cpd 157, 5-ethyl-6-(1-methyl-2-(1-(pyrrolidin-1-yl)ethyl)-1H-indol-5-yl)-2-oxo-1,2-dihydropyridine-3-carboxylic acid], the MIC in the assay with E. coli LZ3111 was 12.5 to 150 µg/mL (≈ 31.8 to 381 µM); in the assay on E. coli 25922, 3.5 to 12.5 µg/mL (≈ 8.89 to 31.8 µM); in assay [1], less than 1 µg/mL; in assay [2] it was 12.5 to 150 µg/mL (≈ 31.8 to 381 µM).
Consider `CCc1cc(C(=O)O)c(=O)[nH]c1-c1ccc2c(cc(CN3CCCC3)n2C)c1F` [Cpd 158, 5-ethyl-6-(4-fluoro-1-methyl-2-(pyrrolidin-1-ylmethyl)-1H-indol-5-yl)-2-oxo-1,2-dihydropyridine-3-carboxylic acid], for which the MIC with E. coli LZ3111 was 12.5 to 150 µg/mL (≈ 31.5 to 377 µM); in the assay with E. coli 25922, 1 to 3.5 µg/mL (≈ 2.52 to 8.81 µM); in assay [1] it was less than 1 µg/mL; in assay [2] it was 12.5 to 150 µg/mL (≈ 31.5 to 377 µM).
On to `CCc1cc(C(=O)O)c(=O)[nH]c1-c1ccc2c(c1)cc(CCN)n2C.Cl` [Cpd 163, 6-(2-(2-aminoethyl)-1-methyl-1H-indol-5-yl)-5-ethyl-2-oxo-1,2-dihydropyridine-3-carboxylic acid hydrochloride], for which the minimum inhibitory concentration (MIC) with E. coli LZ3111 was 12.5 to 150 µg/mL; in the assay with E. coli 25922, 12.5 to 150 µg/mL; in assay [1] it was less than 1 µg/mL; in assay [2], 12.5 to 150 µg/mL.

Source of the values: patent US9409905B2, “Antibacterial compounds and methods for use” (PTC THERAPEUTICS, INC., priority 2011, dated 2016).
